Molecular target: human FXa (Homo sapiens, UniProt P00742)
Assay: Determination of inhibitory activity of activated blood coagulation factor X (FXa)
Type: biochemical
Conditions: substrate S-2765, Tris buffer pH 8.4, incubation 30 minutes, absorbance A405; read-out: FXa inhibitory activity, 50% inhibitory activity (IC50)
Procedure: A test substance was dissolved in water or water containing organic solvents (DMSO, ethanol or methanol) at a suitable concentration to provide a specimen. To 70 μl each of the resulting specimens serially diluted with water, were added 90 μl of a 100 mM Tris buffer (pH 8.4), 20 μl of a 50 mM Tris buffer (pH 8.4) containing 50 mU/ml human FXa and 2 mM of a substrate (S-2765 manufactured by Daiichi Pure Chemicals Co., Ltd.). Incubation was carried out for 30 minutes. To the incubated mixture, was then added 50 μl of a 50% acetic acid. The absorbance (A405) was determined. A mixture prepared by adding the Tris buffer instead of the FXa was used as a blank, and a mixture containing water instead of the specimen was used as a control. The 50% inhibitory activity (IC50) was determined as the indication of FXa inhibitory activity.

Sequence of human FXa (P00742 235-488 limits assumed): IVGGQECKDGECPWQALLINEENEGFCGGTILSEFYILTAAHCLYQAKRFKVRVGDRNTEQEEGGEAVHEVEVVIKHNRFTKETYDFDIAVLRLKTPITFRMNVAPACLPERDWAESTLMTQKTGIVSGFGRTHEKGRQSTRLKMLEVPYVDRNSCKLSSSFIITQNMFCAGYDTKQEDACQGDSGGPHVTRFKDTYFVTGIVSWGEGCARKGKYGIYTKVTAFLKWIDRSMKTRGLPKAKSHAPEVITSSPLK
Sequence of human FXa (P00742 41-179 partner limits assumed): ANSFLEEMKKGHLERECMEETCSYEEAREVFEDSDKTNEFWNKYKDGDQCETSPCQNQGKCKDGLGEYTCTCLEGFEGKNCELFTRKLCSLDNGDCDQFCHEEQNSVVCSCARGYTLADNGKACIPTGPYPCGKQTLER

**Q.** For `CC(C)N1CCC(COCc2cc(C(=O)O)cc(-c3cccc(C(=N)N)c3)c2)CC1`, which IC50 is on record?
**A.** 100 to 1000 nM

**Q.** `COC(=O)c1cc(COCC2CCN(C(C)C)CC2)cc(-c2cccc(C(=N)N)c2)c1` [Reference Example 4, methyl 3-(3-amidinophenyl)-5-[(N-isopropyl-4-piperidinyl)methoxymethyl]-5-benzoate] was tested. Which IC50 did it give?
**A.** 100 to 1000 nM

**Q.** With `COC(=O)c1cc(COCC2CCN(C(C)=O)CC2)cc(-c2cccc(C(=N)N)c2)c1` [Reference Example 5, methyl 3-(3-amidinophenyl)-5-[(N-acetylpiperidin-4-yl)methoxymethyl]-5-benzoate] as the molecule, how does the IC50 read?
**A.** 100 to 1000 nM

**Q.** How did the IC50 turn out when `COC(=O)c1cc(COCC2CCN(C(C)=N)CC2)cc(-c2cccc(C(=N)N)c2)c1` [Reference Example 7, methyl 3-(3-amidinophenyl)-5-[(1-acetimidoyl-4-piperidinyl)methoxymethyl]benzoate] was run?
**A.** 10 to 100 nM

**Q.** `COC(=O)c1cc(COCC2CCNCC2)cc(-c2cccc(C(=N)N)c2)c1` [Reference Example 3, methyl 3-(3-amidinophenyl)-5-[(4-piperidinyl)methoxymethyl]-5-benzoate] was tested. Which IC50 did it give?
**A.** 100 to 1000 nM

**Q.** For `COC(=O)c1cc(CNCC2CCN(C(C)=N)CC2)cc(-c2cccc(C(=N)N)c2)c1` [Reference Example 6, methyl 3-(3-amidinophenyl)-5-[(((N-acetimidoylpiperidin-4-yl)methyl)amino)methyl]benzoate], which IC50 is on record?
**A.** 10 to 100 nM
